Assays:
[1] = AUC (0 to 24 hrs) in Sprague-Dawley rat at 1 mg/kg, iv measured up to 24 hrs by LC-MS/MS analysis; type: ADME, organism-based; design: dose 1 mg/kg, time < 24 hrs, route iv; settings: in vivo
[2] = biological target: MAP kinase-activated protein kinase 2 (Homo sapiens, UniProt P49137); test: Inhibition of MAPKAPK2 (unknown origin)
[3] = biological target: Tyrosine-protein kinase JAK1 (Homo sapiens, UniProt P23458)
Description: Inhibition of human JAK1 kinase domain using biotin-Lyn-substrate-2 as substrate incubated for 1 hr by ELISA

Rattus norvegicus [4] = test: Immunosuppressive activity in Lewis rat transplanted with ACI rat cardiac tissue assessed as reduction in graft rejection by measuring mean survival days at 0.1 mg/kg, po administered for 14 consecutive days co-treated with tacrolimus (reference value: 10 days); type: functional; settings: time 14 day
[5] = biological target: Ribosomal protein S6 kinase beta-1 (Homo sapiens, UniProt P23443); test: Inhibition of p70S6K (unknown origin)
[6] = biological target: Mitogen-activated protein kinase 8 (Homo sapiens, UniProt P45983); test: Inhibition of JNK1 (unknown origin)
[7] = biological target: RAF proto-oncogene serine/threonine-protein kinase (Homo sapiens, UniProt P04049); test: Inhibition of RAF1 (unknown origin)
[8] = biological target: Dual specificity mitogen-activated protein kinase kinase 1 (Homo sapiens, UniProt Q02750); test: Inhibition of MAP2K1 (unknown origin)
[9] = biological target: Proto-oncogene tyrosine-protein kinase Src (Homo sapiens, UniProt P12931); test: Inhibition of SRC (unknown origin)
Proto-oncogene tyrosine-protein kinase Src, sequence (P12931 2-536 limits assumed): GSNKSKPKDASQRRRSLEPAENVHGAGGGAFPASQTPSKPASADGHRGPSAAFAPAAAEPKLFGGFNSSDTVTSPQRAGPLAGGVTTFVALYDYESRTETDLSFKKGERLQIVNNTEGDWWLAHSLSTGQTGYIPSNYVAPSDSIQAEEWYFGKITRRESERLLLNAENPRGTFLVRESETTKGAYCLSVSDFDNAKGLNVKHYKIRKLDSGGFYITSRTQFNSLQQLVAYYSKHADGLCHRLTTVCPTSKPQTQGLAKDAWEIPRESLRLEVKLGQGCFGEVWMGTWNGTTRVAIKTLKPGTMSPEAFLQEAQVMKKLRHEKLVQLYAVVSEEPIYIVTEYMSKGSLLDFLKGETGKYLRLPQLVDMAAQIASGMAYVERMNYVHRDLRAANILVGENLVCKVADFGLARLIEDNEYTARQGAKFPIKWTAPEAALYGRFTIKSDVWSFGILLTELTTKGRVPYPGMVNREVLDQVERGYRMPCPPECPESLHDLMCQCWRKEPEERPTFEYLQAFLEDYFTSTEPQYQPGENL

[10] = Half life in Sprague-Dawley rat at 1 mg/kg, po measured up to 24 hrs by LC-MS/MS analysis; type: ADME, organism-based; settings: in vivo
[11] = biological target: Tyrosine-protein kinase CSK (Homo sapiens, UniProt P41240); test: Inhibition of CSK (unknown origin)
[12] = biological target: Tyrosine-protein kinase ITK/TSK (Homo sapiens, UniProt Q08881); test: Inhibition of ITK (unknown origin)
[13] = Tmax in Sprague-Dawley rat at 1 mg/kg, po measured up to 24 hrs by LC-MS/MS analysis; type: ADME, organism-based; settings: in vivo
Rattus norvegicus [14] = test: Immunosuppressive activity in Lewis rat transplanted with ACI rat cardiac tissue assessed as reduction in graft rejection by measuring mean survival days at 0.25 mg/kg, po administered for 14 consecutive days co-treated with tacrolimus (reference value: 10 days); type: functional; settings: time 14 day
Ephrin type-A receptor 2 = Ephrin type-A receptor 2 (Homo sapiens, UniProt P29317); test: Inhibition of EphA2 (unknown origin)
[15] = biological target: Bone morphogenetic protein receptor type-1A (Homo sapiens, UniProt P36894); test: Inhibition of BMPR1A (unknown origin)
Bone morphogenetic protein receptor type-1A, sequence (P36894 whole entry): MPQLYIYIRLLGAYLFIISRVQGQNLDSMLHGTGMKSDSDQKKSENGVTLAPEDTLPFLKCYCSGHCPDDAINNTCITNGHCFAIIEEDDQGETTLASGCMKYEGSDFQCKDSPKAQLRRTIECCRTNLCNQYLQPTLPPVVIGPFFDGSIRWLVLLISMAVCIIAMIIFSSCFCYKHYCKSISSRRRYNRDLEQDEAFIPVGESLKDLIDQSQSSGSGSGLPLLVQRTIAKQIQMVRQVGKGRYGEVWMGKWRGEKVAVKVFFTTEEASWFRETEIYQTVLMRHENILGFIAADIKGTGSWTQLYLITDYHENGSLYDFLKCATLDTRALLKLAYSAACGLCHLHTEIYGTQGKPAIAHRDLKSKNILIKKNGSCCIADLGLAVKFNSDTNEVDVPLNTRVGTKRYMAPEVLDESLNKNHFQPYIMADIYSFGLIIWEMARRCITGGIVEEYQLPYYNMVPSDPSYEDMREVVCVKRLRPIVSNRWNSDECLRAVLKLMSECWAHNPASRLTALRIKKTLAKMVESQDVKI

Aurora kinase C = Aurora kinase C (Homo sapiens, UniProt Q9UQB9); test: Inhibition of AURC (unknown origin)
Aurora kinase C, sequence (Q9UQB9 whole entry): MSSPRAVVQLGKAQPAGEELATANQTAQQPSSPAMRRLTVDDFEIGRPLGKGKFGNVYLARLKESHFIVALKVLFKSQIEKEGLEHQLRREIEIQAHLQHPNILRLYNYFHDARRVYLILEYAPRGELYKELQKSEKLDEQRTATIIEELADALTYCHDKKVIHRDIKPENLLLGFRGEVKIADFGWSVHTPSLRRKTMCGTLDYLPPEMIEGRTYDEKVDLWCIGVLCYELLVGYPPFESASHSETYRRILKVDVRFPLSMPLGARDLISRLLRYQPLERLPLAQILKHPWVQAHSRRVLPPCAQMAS

[16] = biological target: Calcium/calmodulin-dependent protein kinase type II subunit alpha (Homo sapiens, UniProt Q9UQM7); test: Inhibition of CAMK2alpha (unknown origin)
[17] = biological target: Tyrosine-protein kinase ABL1 (Homo sapiens, UniProt P00519); test: Inhibition of ABL (unknown origin)
Tyrosine-protein kinase ABL1, sequence (P00519 whole entry): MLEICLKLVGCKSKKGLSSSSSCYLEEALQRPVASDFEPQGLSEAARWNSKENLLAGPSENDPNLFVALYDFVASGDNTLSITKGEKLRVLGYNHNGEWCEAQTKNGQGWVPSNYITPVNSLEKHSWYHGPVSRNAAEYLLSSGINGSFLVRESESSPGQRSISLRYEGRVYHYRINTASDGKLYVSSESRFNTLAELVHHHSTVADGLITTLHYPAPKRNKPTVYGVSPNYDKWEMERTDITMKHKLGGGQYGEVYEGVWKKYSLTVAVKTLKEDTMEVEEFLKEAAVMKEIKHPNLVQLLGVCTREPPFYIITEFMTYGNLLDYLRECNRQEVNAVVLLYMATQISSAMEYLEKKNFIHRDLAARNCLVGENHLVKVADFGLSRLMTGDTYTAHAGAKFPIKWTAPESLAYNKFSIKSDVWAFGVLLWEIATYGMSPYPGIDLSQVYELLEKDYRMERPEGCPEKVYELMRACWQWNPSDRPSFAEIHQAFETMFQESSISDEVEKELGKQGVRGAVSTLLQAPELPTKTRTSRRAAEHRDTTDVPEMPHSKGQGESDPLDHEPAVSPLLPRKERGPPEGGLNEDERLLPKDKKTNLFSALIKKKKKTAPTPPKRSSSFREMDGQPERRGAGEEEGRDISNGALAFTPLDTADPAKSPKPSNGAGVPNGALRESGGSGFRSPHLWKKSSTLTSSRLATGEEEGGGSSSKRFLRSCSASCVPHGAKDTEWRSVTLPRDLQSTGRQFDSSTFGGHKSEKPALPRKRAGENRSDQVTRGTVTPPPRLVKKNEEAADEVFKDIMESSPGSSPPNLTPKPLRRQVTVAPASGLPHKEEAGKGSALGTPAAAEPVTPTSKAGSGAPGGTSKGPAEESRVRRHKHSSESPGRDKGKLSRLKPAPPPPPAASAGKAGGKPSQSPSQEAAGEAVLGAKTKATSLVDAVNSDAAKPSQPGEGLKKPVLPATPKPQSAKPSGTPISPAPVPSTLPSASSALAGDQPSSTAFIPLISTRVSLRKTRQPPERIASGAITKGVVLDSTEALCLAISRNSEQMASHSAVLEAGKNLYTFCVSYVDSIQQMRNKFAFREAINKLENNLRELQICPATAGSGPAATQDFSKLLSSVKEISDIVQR

[18] = Inhibition of SYK (unknown origin); design: species or system Homo sapiens
Angiopoietin-1 receptor = Angiopoietin-1 receptor (Homo sapiens, UniProt Q02763); test: Inhibition of TIE2 (unknown origin)
[19] = AUC (0 to 24 hrs) in Sprague-Dawley rat at 1 mg/kg, po measured up to 24 hrs by LC-MS/MS analysis; type: ADME, organism-based; design: dose 1 mg/kg, time < 24 hrs, route po; settings: in vivo
[20] = biological target: Tyrosine-protein kinase ZAP-70 (Homo sapiens, UniProt P43403); test: Inhibition of ZAP70 (unknown origin)
Tyrosine-protein kinase ZAP-70, sequence (P43403 whole entry): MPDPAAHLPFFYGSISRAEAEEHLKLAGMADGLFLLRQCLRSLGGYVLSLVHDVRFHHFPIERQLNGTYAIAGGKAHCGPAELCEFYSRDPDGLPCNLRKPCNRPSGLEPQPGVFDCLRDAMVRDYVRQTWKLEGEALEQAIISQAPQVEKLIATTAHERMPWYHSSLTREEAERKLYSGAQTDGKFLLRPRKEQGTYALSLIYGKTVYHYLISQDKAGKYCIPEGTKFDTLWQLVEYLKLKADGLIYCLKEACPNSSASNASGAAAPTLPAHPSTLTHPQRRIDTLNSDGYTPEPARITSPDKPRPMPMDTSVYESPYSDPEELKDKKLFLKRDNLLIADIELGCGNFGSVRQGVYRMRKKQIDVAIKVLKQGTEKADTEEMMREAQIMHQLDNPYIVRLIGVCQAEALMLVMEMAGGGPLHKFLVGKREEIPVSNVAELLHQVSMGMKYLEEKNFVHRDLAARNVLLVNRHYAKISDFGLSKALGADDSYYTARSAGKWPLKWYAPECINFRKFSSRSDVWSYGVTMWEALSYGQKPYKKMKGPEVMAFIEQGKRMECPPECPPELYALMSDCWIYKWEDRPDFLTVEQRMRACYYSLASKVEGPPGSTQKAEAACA

[21] = biological target: T1, Tyrosine-protein kinase JAK3 (Homo sapiens, UniProt P52333)
T1 sequence (P52333 whole entry): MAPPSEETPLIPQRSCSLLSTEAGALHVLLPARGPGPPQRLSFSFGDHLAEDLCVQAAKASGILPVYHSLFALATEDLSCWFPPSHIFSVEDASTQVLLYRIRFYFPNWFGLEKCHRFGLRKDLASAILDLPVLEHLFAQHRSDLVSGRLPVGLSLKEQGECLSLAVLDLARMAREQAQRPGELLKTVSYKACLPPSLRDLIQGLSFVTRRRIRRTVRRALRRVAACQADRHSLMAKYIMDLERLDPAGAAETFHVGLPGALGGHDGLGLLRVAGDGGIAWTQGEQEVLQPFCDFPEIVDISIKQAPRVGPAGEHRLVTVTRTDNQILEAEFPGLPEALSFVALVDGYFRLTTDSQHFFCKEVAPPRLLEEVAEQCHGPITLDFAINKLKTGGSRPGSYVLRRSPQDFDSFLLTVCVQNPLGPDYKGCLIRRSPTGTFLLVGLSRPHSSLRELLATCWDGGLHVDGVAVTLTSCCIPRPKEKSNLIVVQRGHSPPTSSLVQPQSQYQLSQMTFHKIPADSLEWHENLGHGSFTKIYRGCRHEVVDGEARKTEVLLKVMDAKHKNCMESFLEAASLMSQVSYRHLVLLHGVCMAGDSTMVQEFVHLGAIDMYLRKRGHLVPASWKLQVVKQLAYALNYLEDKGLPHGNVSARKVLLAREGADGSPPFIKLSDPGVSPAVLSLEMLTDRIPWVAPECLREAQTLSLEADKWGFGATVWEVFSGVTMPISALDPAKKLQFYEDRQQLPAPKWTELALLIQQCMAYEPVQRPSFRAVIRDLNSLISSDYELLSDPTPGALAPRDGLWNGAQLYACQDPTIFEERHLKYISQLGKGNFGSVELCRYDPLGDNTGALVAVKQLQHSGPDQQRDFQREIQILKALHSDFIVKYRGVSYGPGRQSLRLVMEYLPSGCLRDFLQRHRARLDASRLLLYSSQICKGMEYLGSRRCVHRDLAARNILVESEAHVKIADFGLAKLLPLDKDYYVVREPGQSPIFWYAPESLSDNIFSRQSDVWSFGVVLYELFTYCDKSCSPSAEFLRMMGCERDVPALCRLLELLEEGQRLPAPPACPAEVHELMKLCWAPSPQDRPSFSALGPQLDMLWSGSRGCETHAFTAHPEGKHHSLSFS
Description: Inhibition of human JAK3 kinase domain using biotin-Lyn-substrate-2 as substrate incubated for 1 hr by ELISA

Cytochrome P450 3A4 = Cytochrome P450 3A4 (Homo sapiens, UniProt P08684); settings: microsomes, 20 min, 5 µM
[22] = Half life in Sprague-Dawley rat at 1 mg/kg, iv measured up to 24 hrs by LC-MS/MS analysis; type: ADME, organism-based; settings: in vivo
[23] = biological target: Mitogen-activated protein kinase kinase kinase 1 (Homo sapiens, UniProt Q13233); test: Inhibition of MAP3K1 (unknown origin)
[24] = biological target: Serine/threonine-protein kinase Chk1 (Homo sapiens, UniProt O14757); test: Inhibition of CHK1 (unknown origin)
Serine/threonine-protein kinase Chk1, sequence (O14757 whole entry): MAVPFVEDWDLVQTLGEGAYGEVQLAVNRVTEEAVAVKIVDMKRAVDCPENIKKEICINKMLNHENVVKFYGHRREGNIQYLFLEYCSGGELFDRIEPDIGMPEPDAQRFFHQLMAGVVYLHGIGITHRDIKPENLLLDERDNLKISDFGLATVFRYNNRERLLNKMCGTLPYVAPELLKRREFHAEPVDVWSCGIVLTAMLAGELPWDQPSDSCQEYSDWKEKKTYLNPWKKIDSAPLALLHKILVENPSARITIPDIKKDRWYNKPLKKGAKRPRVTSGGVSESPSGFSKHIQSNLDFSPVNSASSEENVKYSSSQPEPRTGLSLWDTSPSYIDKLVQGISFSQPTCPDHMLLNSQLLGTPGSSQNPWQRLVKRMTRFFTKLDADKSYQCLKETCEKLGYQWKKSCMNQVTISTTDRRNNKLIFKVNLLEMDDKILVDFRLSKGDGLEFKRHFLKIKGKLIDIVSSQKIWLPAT

[25] = biological target: Epidermal growth factor receptor (Homo sapiens, UniProt P00533); test: Inhibition of EGFR (unknown origin)
Epidermal growth factor receptor, sequence (P00533 whole entry): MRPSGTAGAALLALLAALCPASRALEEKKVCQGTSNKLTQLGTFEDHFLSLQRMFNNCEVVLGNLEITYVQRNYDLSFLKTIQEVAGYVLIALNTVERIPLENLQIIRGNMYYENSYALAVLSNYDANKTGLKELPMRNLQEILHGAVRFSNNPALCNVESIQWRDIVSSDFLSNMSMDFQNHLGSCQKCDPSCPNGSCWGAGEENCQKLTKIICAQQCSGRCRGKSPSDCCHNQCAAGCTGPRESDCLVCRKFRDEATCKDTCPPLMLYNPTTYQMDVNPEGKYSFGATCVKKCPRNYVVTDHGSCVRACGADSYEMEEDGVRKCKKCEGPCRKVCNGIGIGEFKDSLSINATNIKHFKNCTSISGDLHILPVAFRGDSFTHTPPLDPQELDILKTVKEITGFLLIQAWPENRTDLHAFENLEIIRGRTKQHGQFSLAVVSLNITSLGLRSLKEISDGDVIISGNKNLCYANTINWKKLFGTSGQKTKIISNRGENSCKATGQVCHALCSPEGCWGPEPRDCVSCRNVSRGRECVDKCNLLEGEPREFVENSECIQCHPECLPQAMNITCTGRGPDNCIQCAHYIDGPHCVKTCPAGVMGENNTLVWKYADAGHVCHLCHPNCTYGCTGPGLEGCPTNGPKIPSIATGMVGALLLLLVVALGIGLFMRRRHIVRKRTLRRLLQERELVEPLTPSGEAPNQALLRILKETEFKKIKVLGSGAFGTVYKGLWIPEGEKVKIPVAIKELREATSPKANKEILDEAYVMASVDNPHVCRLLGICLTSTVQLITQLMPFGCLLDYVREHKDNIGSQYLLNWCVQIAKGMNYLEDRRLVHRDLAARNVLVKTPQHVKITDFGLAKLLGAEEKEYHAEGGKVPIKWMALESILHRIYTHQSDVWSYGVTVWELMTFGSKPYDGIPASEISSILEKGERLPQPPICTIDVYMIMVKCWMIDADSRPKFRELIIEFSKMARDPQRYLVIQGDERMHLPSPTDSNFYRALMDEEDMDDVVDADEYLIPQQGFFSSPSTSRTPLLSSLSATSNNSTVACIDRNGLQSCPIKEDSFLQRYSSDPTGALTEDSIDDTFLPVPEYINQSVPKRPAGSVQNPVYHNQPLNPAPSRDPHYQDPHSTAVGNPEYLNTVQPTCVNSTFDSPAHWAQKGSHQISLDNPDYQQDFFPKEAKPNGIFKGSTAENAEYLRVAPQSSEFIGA

[26] = biological target: Mitogen-activated protein kinase 11 (Homo sapiens, UniProt Q15759); test: Inhibition of P38beta (unknown origin)
[27] = biological target: Inhibitor of nuclear factor kappa-B kinase subunit beta (Homo sapiens, UniProt O14920); test: Inhibition of IKKB (unknown origin)

Compound: C[C@@H]1CCN(C(=O)CC#N)C[C@@H]1n1ccc2cnc3[nH]ccc3c21
- AUC(0-t) at 24 h [1]: 889 ng·h/mL
- IC50 [2]: > 1 µM
- IC50 [3]: 0.00046 µM
- MST (Rattus norvegicus [4]): 9 days
- IC50 [5]: > 1 µM
- IC50 [6]: > 1 µM
- IC50 [7]: > 1 µM
- IC50 [8]: > 1 µM
- IC50 [9]: > 1 µM
- half-life [10]: 2.58 h
- IC50 [11]: > 1 µM
- IC50 [12]: > 1 µM
- Tmax [13]: 0.5 h
- MST (Rattus norvegicus [14]): 21 days
- IC50 (Ephrin type-A receptor 2): > 1 µM
- IC50 [15]: > 1 µM
- IC50 (Aurora kinase C): > 1 µM
- IC50 [16]: > 1 µM
- IC50 [17]: > 1 µM
- IC50 [18]: > 1 µM
- IC50 (Angiopoietin-1 receptor): > 1 µM
- AUC(0-t) at 24 h [19]: 917 ng·h/mL
- IC50 [20]: > 1 µM
- IC50 [21]: 0.00014 µM
- TDI (Cytochrome P450 3A4): 89%
- half-life [22]: 1.64 h
- IC50 [23]: > 1 µM
- IC50 [24]: > 1 µM
- IC50 [25]: > 1 µM
- IC50 [26]: > 1 µM
- IC50 [27]: > 1 µM

Reference: ChEMBL document CHEMBL5244205, “Discovery of tricyclic dipyrrolopyridine derivatives as novel JAK inhibitors” (Bioorg Med Chem, 2017)
